Source: US20220087951A1, “USE OF CANNABINOIDS IN THE TREATMENT OF EPILEPSY” (GW RESEARCH LIMITED, priority 2020, published 2022)

Tests used:
[1] = Solubility of the drug substance in water; type: physicochemical
[2] = test system: seizures in patients with Tuberous Sclerosis Complex (TSC); assay: Example 2: mean total seizures over time of TSC patients after administration of CBD (FIG. 2); type: in vivo, human
Method: Patients with TSC were administered a highly purified extract of cannabidiol (CBD) obtained from a cannabis plant described herein. Similar to Example 1, patients with a TSC diagnosis were administered a starting dose of 5 mg/kg/day CBD in addition to their baseline anti-epileptic drug (AED) regimen or placebo.
The daily dose was increased by 5 mg/kg increments until intolerance occurred or a maximum dose of 25 mg/kg/day was achieved. The starting dose increase from 5 mg/kg/day to 10 mg/kg/day occurred 7 days after administration of the first dose of CBD. […] The titration period occurred over two weeks. For patients in need of further seizure reduction, the dosage of 20 mg/kg/day was increased up to 25 mg/kg/day after one week.
All patients were taking at least two concomitant anti-epileptic drugs. These included clobazam; levetiracetam; topiramate; stiripentol; phenobarbital; lacsamide; valproic acid; zonisamide. The average number of concomitant antiepileptic drugs being taken was 2.7. The majority took either clobazam and/or valproic acid.
(§1) Prior to treatment with CBD, patients recorded the number of seizures they experienced. This established the baseline levels. During the course of treatment, patients recorded the number of seizures experienced each day.

[3] = test system: seizures in children and young adults with Dravet Syndrome and Lennox-Gastaut Syndrome; assay: Example 1: primary seizure count during baseline and by cumulative day in the treatment period, CBD vs placebo added to baseline AED regimen; type: in vivo, human; conditions: for Ratio to Baseline (number of seizures with treatment to number of seizures at baseline): 5 mg/kg/day starting dose, negative binomial regression of primary seizure count; for percent change in number of seizures compared to baseline: 5 mg/kg/day, positive = decrease in seizures
Method: Children and young adults with Dravet Syndrome Lennox-Gastaut Syndrome were administered a highly purified extract of cannabidiol (CBD) obtained from a cannabis plant or placebo.
The highly purified CBD extract (greater than 98% CBD w/w) was administered in a formulation described herein at a starting dose of 5 mg/kg/day in addition to their baseline anti-epileptic drug (AED) regimen.
The starting dose increase from 5 mg/kg/day to 10 mg/kg/day after one week of administering the first dose of CBD. […] The titration period occurred over two weeks. The starting dose was expected to minimize side effects, and not intended to achieve efficacy.
All patients were taking at least two concomitant anti-epileptic drugs. These included clobazam; levetiracetam; topiramate; stiripentol; phenobarbital; lacsamide; valproic acid; zonisamide.
as §1
The ratio in Table 9 is defined as the number of seizures with treatment to the number of seizures at baseline (e.g., before treatment). The percentage defines the percent change in number of seizures compared to baseline. Positive percentages reflect a decrease in the number of seizures compared to baseline, and negative percentages reflect an increase in number of seizures compared to baseline. The ratio to baseline of patients administered CBD extract includes data from patients treated with a maximum of 10 mg/kg/day or 20 mg/kg/day CBD extract. However, the amount of CBD administered to each treatment arm (10 mg/kg/day and 20 mg/kg/day) over the first 7 days of the study is the same.

## C=C(C)[C@@H]1CCC(C)=C[C@H]1c1c(O)cc(CCCCC)cc1O [CBD, Cannabidiol]
[1]
  solubility in water: insoluble in water
[2]; after 4 days of treatment
  reduction in seizures compared to baseline: significant reduction in seizures
[2]; starting dose 5 mg/kg/day
  onset of seizure reduction: within one week
  time to seizure reduction after administration of starting dose: ≤ 4 days
[2]; titration period, starting dose 5 mg/kg/day
  mean total seizures over time (FIG. 2): starts decreasing during the titration period
[3]; Day 1
  Ratio to Baseline (number of seizures with treatment to number of seizures at baseline): 0.958
  percent change in number of seizures compared to baseline: [4.2%]
[3]; Dravet/Lennox-Gastaut patients, starting dose 5 mg/kg/day
  onset of seizure reduction: within one week
[3]; First 2 Days
  Ratio to Baseline (number of seizures with treatment to number of seizures at baseline): 0.907
  percent change in number of seizures compared to baseline: [9.3%]
[3]; First 3 Days
  Ratio to Baseline (number of seizures with treatment to number of seizures at baseline): 0.882
  percent change in number of seizures compared to baseline: [11.8%]
[3]; First 4 Days
  Ratio to Baseline (number of seizures with treatment to number of seizures at baseline): 0.831
  percent change in number of seizures compared to baseline: [16.9%]
[3]; First 5 Days
  Ratio to Baseline (number of seizures with treatment to number of seizures at baseline): 0.793
  percent change in number of seizures compared to baseline: [20.7%]
[3]; First 6 Days
  Ratio to Baseline (number of seizures with treatment to number of seizures at baseline): 0.742
  percent change in number of seizures compared to baseline: [25.8%]
[3]; First 7 Days
  Ratio to Baseline (number of seizures with treatment to number of seizures at baseline): 0.717
  percent change in number of seizures compared to baseline: [28.3%]
[3]; after 4 days of treatment
  reduction in seizures compared to baseline: significant reduction in seizures
[3]; from within 4 days of treatment, 5 mg/kg/day CBD
  reduction of seizures: > 15%
[3]; starting dose 5 mg/kg/day
  time to seizure reduction after administration of starting dose: ≤ 4 days
